Laboratory results reported in PMC9804387, “Substrate Peptidomimetic Inhibitors of P. falciparum Plasmepsin X with Potent Antimalarial Activity” (Chemmedchem, 2022).
Counter-ions that a name gives are not always drawn. Like-named read-outs stand apart in the source and are kept apart here.

Tests used:
[1] = target: T1, BACE‐1 (Homo sapiens, UniProt P56817); experiment: BACE-1 FRET protease assay; assay type: biochemical; details: mean and SD of 4 replicate FRET experiments, 37 °C; highest concentration tested 11 μM
T1 construct: purchased Sigma S4195

[2] = in vitro; assay type: cell-based; details: human
Protocol: HepG2 Cytotoxicity Assay. HepG2 cytotoxicity assays were performed as previously described.[41] Briefly, human hepatocyte HepG2 cells were cultured in DMEM supplemented with 10 % FCS at 37 °C and 5 % CO2 in a humidified incubator. Cells were seeded at 1000 cells/well in 50 μL in 384‐well plates (Grenier) and compounds incubated in ten‐point 1 : 2‐fold dilution series for 48 h. Cytotoxicity was determined using Cell Titer‐Glo (Promega), normalized to DMSO alone controls (100 % viability) and control compound Bortezomib (0 % viability at 10 μM). CC50 values were calculated by GraphPad Prism (8.0.2) software using a nonlinear regression four‐parameter fit analysis with the sigmoidal dose response (variable slope).

[3] = target: T2, recombinant Pv PMV (Plasmodium vivax, UniProt A5K302); experiment: PMV FRET protease assay; assay type: biochemical
T2 construct: made in house
Protocol: (§1) FRET Protease Assays. FRET protease assays were performed as previously described.[19, 20, 27, 28] Briefly, ten‐point 1 : 3‐fold dilution series of the compounds were prepared in 384‐well black low volume assay plates (Greiner) using an Echo555 (Labcyte). 10 mM compound stocks were transferred into assay plates such that the starting concentration was 90 μM (Pv PMV assays), 11.25 μM (renin, cathepsin D and BACE‐1 assays) or 100 nM and 10 μM (Pf PMX and Pf PMIX assays). All wells were backfilled to 200 nL DMSO such that the DMSO concentration remained constant across the assay plates (1 % final). All compound potency assays were conducted in 20 μL total volume. For each assay, 10 μL of recombinant enzymes in respective assay buffers (Table S2) were dispensed into compound containing assay plates using a Multidrop‐Combi dispenser and allowed to incubate for 15 min. Recombinant Pf PMX, Pf PMIX and Pv PMV were expressed as previously described,[23, 27, 28] and recombinant human aspartyl proteases were purchased commercially. 10 μL of the fluorogenic peptide substrates incubated at 37 °C for the duration and conditions noted in Table S2. Samples were excited at 340 nm and fluorescence emission measured at 492 nm using an Envision fluorescence plate reader (Perkin‐Elmer). The 0 % inhibition control contained DMSO alone (1 % final) and the 100 % inhibition control was in the absence of enzyme. Half‐maximal inhibitory concentration (IC50) values were calculated by GraphPad Prism (8.0.2) software using a nonlinear regression four‐parameter fit analysis using a sigmoidal dose response (variable slope).
(§2) Table S2 . P rotease FRET assay conditions.
(§3) PMX as sa y PMIX PM V assay Renin assay Cathepsin D assay BA CE-1 assay E nzy me prot e as e 0.25 nM pro te a se 6 nM prot e as e q ua nti ty 0.1 nM pro t ea se 1.5 nM pro t ea se 2.5 nM pro t ea se 3 nM (Pro te os #R-001) ( Athe ns Re sea rc h (Sigma #S4195) […]
(§4) 25mM so di um acetate, 100 mM 25 mM M E S, 25 m M 50 mM Tr is, 100 mM 100 mM so di u m 20 mM so dium Buffer acetate, 0.005% sodium chloride and Tris-HCl, 0.01% N aC l, 0. 1% Bri j-35, acetate 0.02% scetate, 0.05% […]
(§5) Sub str at e DABCYL- ( DA BC YL ) - DABCYL- DABCYL-(γ- Ab u) - E[E(EDANS)]KPIL […]

[4] = target: T3, recombinant Pf PMIX (Plasmodium falciparum, UniProt Q8ILG2); experiment: PMIX FRET protease assay; assay type: biochemical, P. falciparum; details: mean and SD of 4 replicate FRET experiments, 37 °C
T3 construct: made in house
Protocol: as §1, §2, §3, §4, §5

[5] = target: T4, recombinant Pf PMX (Plasmodium falciparum, UniProt Q8IAS0); experiment: PMX biochemical FRET assay (Rh2N fluorogenic substrate cleavage); details: 37 °C
T4 construct: made in house
Protocol: as §1, with “Half‐maximal inhibitory concentration (IC50) values were calculated by GraphPad Prism (8.0.2) software using a nonlinear regression four‐parameter fit analysis using a sigmoidal dose response (variable slope).” left out
as §2, §3, §4, §5

[6] = target: T5, cathepsin D (Homo sapiens, UniProt P07339); experiment: Cathepsin D FRET protease assay; assay type: biochemical; details: mean and SD of 4 replicate FRET experiments, 37 °C; highest concentration tested 11 μM
T5 construct: purchased Athens Research 16-12-030104

[7] = target: T6, renin (Homo sapiens, UniProt P00797); experiment: Renin FRET protease assay; assay type: biochemical; details: mean and SD of 4 replicate FRET experiments, 37 °C; highest concentration tested 11 μM
T6 construct: purchased Proteos R-001
T6 sequence (P00797 67-406): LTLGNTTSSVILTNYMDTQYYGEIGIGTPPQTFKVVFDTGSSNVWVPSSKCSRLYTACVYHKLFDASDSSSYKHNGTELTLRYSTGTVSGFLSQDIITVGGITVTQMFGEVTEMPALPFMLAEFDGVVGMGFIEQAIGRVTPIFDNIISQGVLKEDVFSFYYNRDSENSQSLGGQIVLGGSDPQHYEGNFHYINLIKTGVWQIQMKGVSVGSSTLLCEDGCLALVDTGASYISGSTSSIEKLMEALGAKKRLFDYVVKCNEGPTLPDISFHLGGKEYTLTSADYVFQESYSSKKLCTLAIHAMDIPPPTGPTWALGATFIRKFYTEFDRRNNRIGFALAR

[8] = test system: P. falciparum (Pf) 3D7 parasites; experiment: P. falciparum LDH viability assay; assay type: cell-based; details: Plasmodium falciparum, 3D7, 72 h, LDH activity, 72 h at 37 °C; mean and SD of 3 independent experiments
Protocol: P. falciparum LDH Viability Assay. P. falciparum LDH viability assays were performed as previously described.[40] Briefly, a ten‐point 1 : 3‐fold dilution series of the compounds were pre‐dispensed in 384‐well assay plates (Grenier), and RPMI/AlbuMAX growth media inoculated with synchronized ring stage P. falciparum parasites. 10 mM compound stocks were transferred into the assay plates such that the starting concentration was 10 μM. Plates were incubated for 72 h and then frozen at −80 °C overnight. Lactate dehydrogenase (LDH) activity was quantified with APAD by measuring absorbance of NBT at 650 nm. Data were normalized to percent growth inhibition using the positive control of 0.1 % DMSO alone and the negative control of 100 nM chloroquine. Half‐maximal effective concentration (EC50) values were calculated by GraphPad Prism (8.0.2) software using a nonlinear regression four‐parameter fit analysis using a sigmoidal dose response (variable slope).

[9] = test system: PMIX processing of the ASP protein; experiment: ASP processing inhibition assay in parasites (western blot, anti-HA); assay type: cell-based, P. falciparum; details: WM382 (1) at 2.5 nM, HA‐tagged ASP parasites
Protocol: (§6) In this experiment, synchronized late trophozoite/early schizont stage parasites, expressing HA‐tagged ASP, were incubated with 38 (10 μM), the positive control WM382 (1) (2.5 nM) (a dual potent inhibitor of PMIX and PMX) and the DMSO vehicle control. Parasites from each treatment condition were then lysed and the processing of the known PMX and PMIX substrates were detected by western blot as a corollary of protease activity.
P. falciparum ASP and SERA5 Processing Inhibition Assay. P. falciparum substrate processing inhibition assays were performed as previously described.[28] Synchronized ring stage cultures were treated with test compounds 38 (10 μM) and WM382 (2.5 nM)[28] or DMSO as a vehicle control. The parasite cultures were grown to the schizont stage before passing over LD magnetic columns (Miltenyi Biotech) to remove uninfected erythrocytes. Parasites were eluted from columns with RPMI 1640 (in‐house) culture medium to which the appropriate inhibitor at the same concentration had been added. Eluted parasites were adjusted to 5×10^6 schizonts/mL and 150 μL added per well of a 96‐well flat‐bottomed culture plate. […] HA‐tagged apical sushi protein (ASP) was detected in the merozoite fraction with anti‐HA mAb and SERA5 was detected in the supernatant fraction with an anti‐SERA5 polyclonal Ab. […]

[10] = test system: Pf 3D7; parameters: method as in PMID 29074775, PMID 32109369, PMID 23260352, PMID 29519896; details: Figure 1, described in literature; cited from earlier work
[11] = test system: PMX; details: Figure 1, described in literature; cited from earlier work
[12] = test system: SERA5 processing by SUB1, indicative of upstream activity by PMX; experiment: SERA5 processing inhibition assay in parasites (western blot, anti-SERA5); assay type: cell-based, P. falciparum; details: WM382 (1) at 2.5 nM
Source text: PMX and PMIX ligand cleavage in P. falciparum parasites. It was next determined whether 38 could inhibit PMX and PMIX processing of known invasion and egress ligands in P. falciparum parasites. […] SERA5 is not a direct substrate of PMX, but is processed by SUB1 which itself is activated by PMX. The degree of downstream processing of SERA5 by SUB1 is indicative of PMX activity.
as §6
P. falciparum ASP and SERA5 Processing Inhibition Assay. P. falciparum substrate processing inhibition assays were performed as previously described.[28] Synchronized ring stage cultures were treated with test compounds 38 (10 μM) and WM382 (2.5 nM)[28] or DMSO as a vehicle control. […] HA‐tagged apical sushi protein (ASP) was detected in the merozoite fraction with anti‐HA mAb and SERA5 was detected in the supernatant fraction with an anti‐SERA5 polyclonal Ab. […]

[13] = test system: PMIX; parameters: method as in PMID 29074775, PMID 32109369, PMID 23260352, PMID 29519896; details: Figure 1, described in literature; cited from earlier work
[14] = Table 3, mean and SD of 4 replicate FRET experiments
[15] = recombinant PMX, fluorogenic substrate (Rh2N) cleavage, 4 h, mean and SD of 4 replicates (Tables 1, 2)

T4 sequence (Q8IAS0 222-573): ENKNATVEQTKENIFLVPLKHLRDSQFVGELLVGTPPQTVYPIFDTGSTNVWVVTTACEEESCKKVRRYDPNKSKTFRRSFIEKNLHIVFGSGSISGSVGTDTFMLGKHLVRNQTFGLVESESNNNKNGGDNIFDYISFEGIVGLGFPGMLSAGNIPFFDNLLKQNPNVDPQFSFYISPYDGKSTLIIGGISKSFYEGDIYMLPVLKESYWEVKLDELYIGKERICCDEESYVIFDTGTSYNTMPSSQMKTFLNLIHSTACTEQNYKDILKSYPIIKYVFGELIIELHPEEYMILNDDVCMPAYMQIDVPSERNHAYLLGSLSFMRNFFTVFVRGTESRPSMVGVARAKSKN
T3 sequence (Q8ILG2 whole entry): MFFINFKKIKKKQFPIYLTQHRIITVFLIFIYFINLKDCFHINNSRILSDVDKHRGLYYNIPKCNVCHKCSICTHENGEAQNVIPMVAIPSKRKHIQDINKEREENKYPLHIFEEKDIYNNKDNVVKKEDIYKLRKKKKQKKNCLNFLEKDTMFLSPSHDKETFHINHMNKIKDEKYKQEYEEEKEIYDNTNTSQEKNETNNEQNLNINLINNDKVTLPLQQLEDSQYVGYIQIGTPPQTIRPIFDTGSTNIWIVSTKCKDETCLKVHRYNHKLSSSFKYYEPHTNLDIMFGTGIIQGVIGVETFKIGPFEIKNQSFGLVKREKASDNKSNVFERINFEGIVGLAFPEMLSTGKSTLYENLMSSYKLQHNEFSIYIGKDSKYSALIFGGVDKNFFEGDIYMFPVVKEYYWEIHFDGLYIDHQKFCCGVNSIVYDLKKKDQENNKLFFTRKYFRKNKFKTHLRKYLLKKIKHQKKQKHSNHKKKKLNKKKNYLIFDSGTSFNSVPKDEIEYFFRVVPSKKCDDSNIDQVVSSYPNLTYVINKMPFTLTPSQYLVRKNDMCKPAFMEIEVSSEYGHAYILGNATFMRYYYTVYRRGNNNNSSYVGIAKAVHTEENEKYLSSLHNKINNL
T2 sequence (A5K302 35-536): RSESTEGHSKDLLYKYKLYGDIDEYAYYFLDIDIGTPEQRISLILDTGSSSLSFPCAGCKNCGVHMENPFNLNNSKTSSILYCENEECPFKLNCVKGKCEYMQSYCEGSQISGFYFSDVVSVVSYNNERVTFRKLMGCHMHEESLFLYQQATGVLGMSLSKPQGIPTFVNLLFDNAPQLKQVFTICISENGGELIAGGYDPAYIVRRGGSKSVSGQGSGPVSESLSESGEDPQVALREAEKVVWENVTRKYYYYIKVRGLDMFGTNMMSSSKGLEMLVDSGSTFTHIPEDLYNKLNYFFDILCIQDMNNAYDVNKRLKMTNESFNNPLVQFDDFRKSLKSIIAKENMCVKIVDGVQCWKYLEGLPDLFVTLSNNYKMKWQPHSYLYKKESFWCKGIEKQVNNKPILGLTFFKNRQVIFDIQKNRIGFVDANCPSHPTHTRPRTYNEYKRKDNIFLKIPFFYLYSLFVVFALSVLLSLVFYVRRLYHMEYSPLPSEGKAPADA
T1 sequence (P56817 46-460 limits assumed): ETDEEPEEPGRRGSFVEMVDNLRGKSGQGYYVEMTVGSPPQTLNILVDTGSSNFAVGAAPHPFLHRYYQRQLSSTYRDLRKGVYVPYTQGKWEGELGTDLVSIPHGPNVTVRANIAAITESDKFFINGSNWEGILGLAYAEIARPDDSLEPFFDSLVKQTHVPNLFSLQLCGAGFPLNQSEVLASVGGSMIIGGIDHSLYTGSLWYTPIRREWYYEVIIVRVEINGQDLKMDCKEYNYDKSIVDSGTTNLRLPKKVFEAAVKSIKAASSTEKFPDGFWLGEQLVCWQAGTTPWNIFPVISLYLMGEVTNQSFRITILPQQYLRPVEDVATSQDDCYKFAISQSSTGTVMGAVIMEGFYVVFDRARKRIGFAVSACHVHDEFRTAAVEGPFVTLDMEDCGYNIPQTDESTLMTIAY
T5 sequence (P07339 65-412): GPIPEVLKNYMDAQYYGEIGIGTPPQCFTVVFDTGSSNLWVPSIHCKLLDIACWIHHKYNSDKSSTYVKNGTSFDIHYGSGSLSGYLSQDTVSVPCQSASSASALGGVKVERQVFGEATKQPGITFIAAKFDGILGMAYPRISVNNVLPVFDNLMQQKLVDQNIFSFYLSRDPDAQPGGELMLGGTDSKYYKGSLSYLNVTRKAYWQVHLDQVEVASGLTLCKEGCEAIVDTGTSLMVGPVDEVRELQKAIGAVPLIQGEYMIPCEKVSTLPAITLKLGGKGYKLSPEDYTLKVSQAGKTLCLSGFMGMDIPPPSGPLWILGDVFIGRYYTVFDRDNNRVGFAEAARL

| SMILES | IC50 [1] | CC50 at 48 h [2] | IC50 [3] | IC50 [4] | IC50 [5, 14] | IC50 [5, 15] | IC50 [6] | IC50 [7] | EC50 [8] | IC50 ([3]; Table S2, positive control activity in assay, 90 min, read-out: Positive control IC50 in PMV assay) | ASP processing by PMIX (western blot) [9] | EC50 [10] | IC50 [11] | SERA5 processing (western blot) [12] | IC50 [13] |
| --- | --- | --- | --- | --- | --- | --- | --- | --- | --- | --- | --- | --- | --- | --- | --- |
| CCC(C)C(NC(C)=O)C(=O)NC(CO)C(=O)NC(Cc1ccccc1)C(O)CNC(C)c1ccccc1 (centres unmarked) [Compd 26, Ac‐Ile‐Ser‐Phe‐HEA‐Bn(CH3)⋅TFA] | 2900 nM | > 40000 nM | > 90000 nM | 2700 nM | 10 nM | 10 nM | > 11000 nM | > 11000 nM | 190 nM | – | – | – | – | – | – |
| CC(C)[C@H](NC(=O)OCc1ccccc1)C(=O)N[C@@H](Cc1ccccc1)[C@H](O)CN[C@H](C)c1ccccc1 [Compd 34, Cbz‐Val‐Phe‐HEA‐Bn(CH3)] | > 11000 nM | 13000 nM | > 90000 nM | 6900 nM | 10 nM | 10 nM | > 11000 nM | > 11000 nM | 50 nM | – | – | – | – | – | – |
| CCC(C)[C@H](NC(=O)OCc1ccccc1)C(=O)N[C@@H](Cc1ccccc1)[C@H](O)CN[C@H](C)c1ccccc1 (some centres unmarked) [Compd 37, Cbz‐Ile‐Phe‐HEA‐Bn(CH3)] | > 11000 nM | > 40000 nM | > 90000 nM | 14700 nM | – | 20 nM | 200 nM | > 11000 nM | 140 nM | – | – | – | – | – | – |
| CC(C)C[C@H](NC(=O)[C@@H](NC(=O)[C@H](CCON=C(N)N)NC(=O)OCc1ccccc1)C(C)C)[C@@H](O)CC(=O)NCCc1ccccc1 [WEHI-842, reference compound] | – | – | – | – | – | – | – | – | – | 17 nM | – | – | – | – | – |
| CCC1(CC)CC(=O)N([C@@H]2CCOc3ccc(C(=O)N[C@H]4CC(C)(C)Oc5ccccc54)cc32)C(=N)N1 [WM382] | – | – | – | – | – | – | – | – | – | – | inhibition of ASP processing | 0.6 nM | 0.04 nM | complete inhibition of SERA5 processing | 0.4 nM |
